Laboratory results as given in PubChem BioAssay (NCI).
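Step 1: Grow cells in 96-well plates. Step 2: Expose to compound for 48 hours at 5 concentrations. Step 3: Interpolate endpoints linearly; if unreached, use highest concentration. Here, GI50 denotes the concentration required for 50% inhibition of growth. The concentration for full growth arrest is given as TGI.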

Tests used:
Assay in all cases: NCI-60 cell line screen, 48 h
[1] = tested on: MDA-MB-435
[2] = tested on: HL-60(TB) leukemia
[3] = tested on: MDA-MB-231 breast
[4] = tested on: A549 NSCLC
[5] = tested on: DU-145 prostate
[6] = tested on: U251 CNS
[7] = tested on: OVCAR-4 ovarian
[8] = tested on: SNB-75 CNS
[9] = tested on: HOP-62 NSCLC
[10] = tested on: NCI-H226 lung
[11] = tested on: UACC-257 melanoma
[12] = tested on: NCI/ADR-RES ovarian
[13] = tested on: T-47D breast
[14] = tested on: MCF7 breast
[15] = tested on: K-562 leukemia
[16] = tested on: SK-MEL-5 melanoma
[17] = tested on: A498 renal
[18] = tested on: SK-OV-3 ovarian
[19] = tested on: HT29 colon
[20] = tested on: LOX IMVI melanoma
[21] = tested on: HOP-92 NSCLC
[22] = tested on: SF-295 CNS
[23] = tested on: NCI-H23 lung
[24] = tested on: MOLT-4 leukemia
[25] = tested on: CCRF-CEM leukemia
[26] = tested on: 786-0 renal
[27] = tested on: UO-31 renal
[28] = tested on: SN12C renal
[29] = tested on: HCT-116 colon
[30] = tested on: KM12 colon
[31] = tested on: HCC-2998 colon
[32] = tested on: RPMI-8226 leukemia
[33] = tested on: SF-539 CNS
[34] = tested on: SR leukemia
[35] = tested on: NCI-H460 lung
[36] = tested on: OVCAR-8 ovarian
[37] = tested on: COLO 205 colon
[38] = tested on: UACC-62 melanoma
[39] = tested on: PC-3 prostate
[40] = tested on: TK-10 renal
[41] = tested on: OVCAR-5 ovarian
[42] = tested on: NCI-H522 lung
[43] = tested on: BT-549 breast
[44] = tested on: HS 578T breast
[45] = tested on: SNB-19 CNS
[46] = tested on: MALME-3M melanoma
[47] = tested on: EKVX NSCLC
[48] = tested on: SK-MEL-28 melanoma
[49] = tested on: SF-268 CNS
[50] = tested on: RXF 393 renal
[51] = tested on: M14 melanoma
[52] = tested on: SW-620 colon
[53] = tested on: CAKI-1 renal
[54] = tested on: HCT-15 colon
[55] = tested on: ACHN renal
[56] = tested on: OVCAR-3 ovarian

## COc1ccc2c(c1)[n+]([O-])c(C#N)c(NC(=O)c1cccs1)[n+]2[O-]
[1]
  GI50: > 100 µM
  TGI: > 100 µM
[2]
  GI50: > 100 µM
  TGI: > 100 µM
[3]
  GI50: > 100 µM
  TGI: > 100 µM
[4]
  GI50: > 100 µM
  TGI: > 100 µM
[5]
  GI50: > 100 µM
  TGI: > 100 µM
[6]
  GI50: > 100 µM
  TGI: > 100 µM
[7]
  GI50: > 100 µM
  TGI: > 100 µM
[8]
  GI50: > 100 µM
  TGI: > 100 µM
[9]
  GI50: > 100 µM
  TGI: > 100 µM
[10]
  GI50: > 100 µM
  TGI: > 100 µM
[11]
  GI50: > 100 µM
  TGI: > 100 µM
[12]
  GI50: > 100 µM
  TGI: > 100 µM
[13]
  GI50: > 100 µM
  TGI: > 100 µM
[14]
  GI50: > 100 µM
  TGI: > 100 µM
[15]
  GI50: > 100 µM
  TGI: > 100 µM
[16]
  GI50: > 100 µM
  TGI: > 100 µM
[17]
  GI50: > 100 µM
  TGI: > 100 µM
[18]
  GI50: > 100 µM
  TGI: > 100 µM
[19]
  GI50: > 100 µM
  TGI: > 100 µM
[20]
  GI50: > 100 µM
  TGI: > 100 µM
[21]
  GI50: > 100 µM
  TGI: > 100 µM
[22]
  GI50: > 100 µM
  TGI: > 100 µM
[23]
  GI50: > 100 µM
  TGI: > 100 µM
[24]
  GI50: > 100 µM
  TGI: > 100 µM
[25]
  GI50: > 100 µM
  TGI: > 100 µM
[26]
  GI50: > 100 µM
  TGI: > 100 µM
[27]
  GI50: > 100 µM
  TGI: > 100 µM
[28]
  GI50: > 100 µM
  TGI: > 100 µM
[29]
  GI50: > 100 µM
  TGI: > 100 µM
[30]
  GI50: > 100 µM
  TGI: > 100 µM
[31]
  GI50: > 100 µM
  TGI: > 100 µM
[32]
  GI50: > 100 µM
  TGI: > 100 µM
[33]
  GI50: > 100 µM
  TGI: > 100 µM
[34]
  GI50: > 100 µM
  TGI: > 100 µM
[35]
  GI50: > 100 µM
  TGI: > 100 µM
[36]
  GI50: > 100 µM
  TGI: > 100 µM
[37]
  GI50: > 100 µM
  TGI: > 100 µM
[38]
  GI50: > 100 µM
  TGI: > 100 µM
[39]
  GI50: > 100 µM
  TGI: > 100 µM
[40]
  GI50: > 100 µM
  TGI: > 100 µM
[41]
  GI50: > 100 µM
  TGI: > 100 µM
[42]
  GI50: > 100 µM
  TGI: > 100 µM
[43]
  GI50: > 100 µM
  TGI: > 100 µM
[44]
  GI50: > 100 µM
  TGI: > 100 µM
[45]
  GI50: > 100 µM
  TGI: > 100 µM
[46]
  GI50: > 100 µM
  TGI: > 100 µM
[47]
  GI50: > 100 µM
  TGI: > 100 µM
[48]
  GI50: > 100 µM
  TGI: > 100 µM
[49]
  GI50: > 100 µM
  TGI: > 100 µM
[50]
  GI50: > 100 µM
  TGI: > 100 µM
[51]
  GI50: > 100 µM
  TGI: > 100 µM
[52]
  GI50: > 100 µM
  TGI: > 100 µM
[53]
  GI50: > 100 µM
  TGI: > 100 µM
[54]
  GI50: > 100 µM
  TGI: > 100 µM
[55]
  GI50: > 100 µM
  TGI: > 100 µM
[56]
  GI50: > 100 µM
  TGI: > 100 µM
